In the NIST ThermoML archive (doi:10.1016/j.fluid.2007.07.066):

Experiment: mn = molality of the nth substance listed, in mol/kg
Details: 101 kPa, Liquid; for speed of sound: Sing-around technique in a fixed-path interferometer; for molar conductivity: dip type immersion conductance cell

O=P([O-])([O-])O.[Na+].[Na+] [disodium hydrogen phosphate] + O
Details	mass density [kg/m3]	molar conductivity [S·m2/mol]	speed of sound [m/s]
283.15 K, m1 = 0.007	1000.71	–	1449.3
283.15 K, m1 = 0.0104	1001.19	–	1450
283.15 K, m1 = 0.0141	1001.72	–	1450.8
283.15 K, m1 = 0.032	1004.23	–	1454.2
283.15 K, m1 = 0.0386	1005.14	–	1455.5
283.15 K, m1 = 0.0411	1005.5	–	1456
283.15 K, m1 = 0.0496	1006.7	–	1457.7
283.15 K, m1 = 0.0632	1008.57	–	1460.3
283.15 K, m1 = 0.0737	1010.03	–	1462.3
283.15 K, m1 = 0.1066	1014.53	–	1468.4
283.15 K, m1 = 0.181	1024.58	–	1481.8
283.15 K, m1 = 0.2454	1033.1	–	1493.2
283.15 K, m1 = 0.2498	1033.68	–	1493.8
283.15 K, m1 = 0.2939	1039.48	–	1501.6
283.15 K, m1 = 0.3192	1042.77	–	1506
283.15 K, m1 = 0.3723	1049.55	–	1514.9
283.15 K, m1 = 0.4483	1059.19	–	1527.7
283.15 K, m1 = 0.6185	1080.36	–	1555.7
283.15 K, m1 = 0.7841	1100.26	–	1582.3
288.15 K, m1 = 0.007	1000.1	–	1467.6
288.15 K, m1 = 0.0104	1000.57	–	1468.3
288.15 K, m1 = 0.0141	1001.09	–	1469
288.15 K, m1 = 0.032	1003.56	–	1472.3
288.15 K, m1 = 0.0386	1004.46	–	1473.6
288.15 K, m1 = 0.0411	1004.81	–	1474.1
288.15 K, m1 = 0.0496	1006	–	1475.7
288.15 K, m1 = 0.0632	1007.85	–	1478.2
288.15 K, m1 = 0.0737	1009.28	–	1480.1
288.15 K, m1 = 0.1066	1013.73	–	1486
288.15 K, m1 = 0.181	1023.64	–	1499.1
288.15 K, m1 = 0.2454	1032.07	–	1510.1
288.15 K, m1 = 0.2498	1032.64	–	1510.8
288.15 K, m1 = 0.2939	1038.38	–	1518.3
288.15 K, m1 = 0.3192	1041.64	–	1522.6
288.15 K, m1 = 0.3723	1048.34	–	1531.2
288.15 K, m1 = 0.4483	1057.89	–	1543.6
288.15 K, m1 = 0.6185	1078.87	–	1570.8
288.15 K, m1 = 0.7841	1098.62	–	1596.7
293.15 K, m1 = 0.007	999.185	–	1483.8
293.15 K, m1 = 0.0104	999.653	–	1484.5
293.15 K, m1 = 0.0141	1000.17	–	1485.2
293.15 K, m1 = 0.032	1002.61	–	1488.4
293.15 K, m1 = 0.0386	1003.49	–	1489.6
293.15 K, m1 = 0.0411	1003.85	–	1490.1
293.15 K, m1 = 0.0496	1005.01	–	1491.7
293.15 K, m1 = 0.0632	1006.84	–	1494.1
293.15 K, m1 = 0.0737	1008.26	–	1495.9
293.15 K, m1 = 0.1066	1012.65	–	1501.7
293.15 K, m1 = 0.181	1022.47	–	1514.3
293.15 K, m1 = 0.2454	1030.81	–	1525
293.15 K, m1 = 0.2498	1031.37	–	1525.7
293.15 K, m1 = 0.2939	1037.06	–	1533
293.15 K, m1 = 0.3192	1040.28	–	1537.1
293.15 K, m1 = 0.3723	1046.93	–	1545.5
293.15 K, m1 = 0.4483	1056.39	–	1557.6
293.15 K, m1 = 0.6185	1077.21	–	1584
293.15 K, m1 = 0.7841	1096.81	–	1609.1
298.15 K, m1 = 0.0049	–	0.01921	–
298.15 K, m1 = 0.007	998.012	–	1498
298.15 K, m1 = 0.0104	998.476	0.01802	1498.7
298.15 K, m1 = 0.0141	998.988	–	1499.3
298.15 K, m1 = 0.0154	–	0.01735	–
298.15 K, m1 = 0.0211	–	0.0167	–
298.15 K, m1 = 0.032	1001.4	–	1502.5
298.15 K, m1 = 0.0386	1002.28	–	1503.7
298.15 K, m1 = 0.0411	1002.63	–	1504.1
298.15 K, m1 = 0.0413	–	0.01534	–
298.15 K, m1 = 0.0496	1003.78	–	1505.6
298.15 K, m1 = 0.0632	1005.6	–	1508
298.15 K, m1 = 0.0712	–	0.014	–
298.15 K, m1 = 0.0737	1007	–	1509.8
298.15 K, m1 = 0.1066	1011.35	0.01306	1515.3
298.15 K, m1 = 0.1437	–	0.01234	–
298.15 K, m1 = 0.181	1021.07	–	1527.7
298.15 K, m1 = 0.1927	–	0.0116	–
298.15 K, m1 = 0.2454	1029.34	–	1538
298.15 K, m1 = 0.2475	–	0.011	–
298.15 K, m1 = 0.2498	1029.9	–	1538.6
298.15 K, m1 = 0.2939	1035.53	–	1545.8
298.15 K, m1 = 0.3192	1038.73	–	1549.8
298.15 K, m1 = 0.3697	–	0.00986	–
298.15 K, m1 = 0.3723	1045.32	–	1558
298.15 K, m1 = 0.4438	–	0.009224	–
298.15 K, m1 = 0.4483	1054.71	–	1569.7
298.15 K, m1 = 0.5295	–	0.008621	–
298.15 K, m1 = 0.6125	–	0.00816	–
298.15 K, m1 = 0.6185	1075.38	–	1595.4
298.15 K, m1 = 0.6768	–	0.00778	–
298.15 K, m1 = 0.7479	–	0.007445	–
298.15 K, m1 = 0.7841	1094.86	–	1619.8
298.15 K, m1 = 0.8346	–	0.00706	–
298.15 K, m1 = 0.9695	–	0.006536	–
303.15 K, m1 = 0.007	996.606	–	1510.4
303.15 K, m1 = 0.0104	997.065	–	1511
303.15 K, m1 = 0.0141	997.573	–	1511.7
303.15 K, m1 = 0.032	999.963	–	1514.7
303.15 K, m1 = 0.0386	1000.84	–	1515.9
303.15 K, m1 = 0.0411	1001.18	–	1516.3
303.15 K, m1 = 0.0496	1002.33	–	1517.8
303.15 K, m1 = 0.0632	1004.12	–	1520.1
303.15 K, m1 = 0.0737	1005.51	–	1521.8
303.15 K, m1 = 0.1066	1009.83	–	1527.2
303.15 K, m1 = 0.181	1019.47	–	1539.2
303.15 K, m1 = 0.2454	1027.67	–	1549.2
303.15 K, m1 = 0.2498	1028.22	–	1549.9
303.15 K, m1 = 0.2939	1033.82	–	1556.8
303.15 K, m1 = 0.3192	1036.99	–	1560.7
303.15 K, m1 = 0.3723	1043.54	–	1568.7
303.15 K, m1 = 0.4483	1052.87	–	1580.1
303.15 K, m1 = 0.6185	1073.41	–	1605.1
303.15 K, m1 = 0.7841	1092.78	–	1628.8
